From US7968526B2, “Antisense oligonucleotides directed to ribonucleotide reductase R2 and uses thereof in the treatment of cancer” (Lorus Therapeutics Inc., priority 2003, dated 2011) come the findings set out here.

“Also recorded” adds a separate entry of the source.

Type in all cases: in vivo, human cells in mice
In test [1] the test system is A2058 human melanoma cells. The test can be described thus: A2058 melanoma xenograft in CD-1 nude mice, combination with DTIC (1.6). As to conditions: A2058 (melanoma), CD-1; SEQ ID NO:1 10 mg/kg i.v. every other day; DTIC 80 mg/kg i.v. days 6-10. The protocol:
After 52 days the mice were sacrificed and the tumours weighed. […] Mitoxantrone was administered intravenously once at the beginning of the treatments at a dose of 2 mg/kg (FIG. 4A) or once a week for four weeks at a reduced dose of 0.8 mg/kg (FIG. 4B). All treatments were stopped at day 50 (FIG. 4A) or 48 (FIG. 4B), respectively. […] Mitoxantrone was administered intravenously once at the beginning of the treatments at a dose of 2 mg/kg (FIG. 5A) or once a week for four weeks at a reduced dose of 0.8 mg/kg (FIG. 5B). All treatments were stopped at day 42 (FIG. 5A) or 38 (FIG. 5B), respectively. […] A2058 is a metastatic melanoma cell line. […] All treatments were stopped at day 24. […] Taxol was administered intravenously once a week at a dose of 10 mg/kg for three (FIG. 7A) or four weeks (FIG. 7C). Doxorubicin was administered intravenously once a week at a dose of 5 mg/kg for first three weeks (FIG. 7A) or for two weeks (FIG. 7C). All treatments were stopped at day 33 (FIG. 7A) or at day 26 (FIG. 7C), respectively. […] In FIG. 7C, antitumour activities were estimated by the inhibition of tumour volume, which was measured with calipers. Each point represents mean tumour volume calculated from 10 animals per experimental group. […] Taxol was administered intravenously once a week for first three weeks and intraperitoneally once a week for next two weeks at a dose of 10 mg/kg. Cisplatin was administered intravenously once a week for first three weeks and intraperitoneally once a week for next two weeks at a dose of 4 mg/kg. All treatments were stopped at day 40. Antitumour activities were estimated by the inhibition of tumour volume, which was measured with caliper. Each point represents mean tumour volume calculated from 9 animals per experimental group.

For test [2], the system named is DU145 human prostatic cancer cells. Description: DU145 prostatic tumour xenograft in SCID mice, combination with mitoxantrone (1.5). As to conditions: for Tumour weight as % of saline control: DU145 (prostatic), SCID, SEQ ID NO:1 10 mg/kg i.v. every other day, mitoxantrone i.v.
Experimental: (§1) After 52 days the mice were sacrificed and the tumours weighed. […] In both experiments, PC-3 human prostatic cancer cells (1×10^7 cells in 100 μl of PBS) were subcutaneously injected into the right flank of 6-7 weeks old male SCID mice. After the size of tumour reached an approximate volume of 50 mm^3, 14 days post tumour cell injection, SEQ ID NO: 1 was administered by bolus infusion into the tail vein every other day at 10 mg/kg 18 times (FIG. 4A) or 17 times (FIG. 4B), respectively. Control animals received saline alone for the same period. Antitumour effect of SEQ ID NO:1 was further compared to that of mitoxantrone (novantrone) alone or in combination. Mitoxantrone was administered intravenously once at the beginning of the treatments at a dose of 2 mg/kg (FIG. 4A) or once a week for four weeks at a reduced dose of 0.8 mg/kg (FIG. 4B). All treatments were stopped at day 50 (FIG. 4A) or 48 (FIG. 4B), respectively. A day after the last treatment, tumours were excised from the animals and their weights were measured. […] In both experiments, DU145 human prostatic cancer cells (1×10^7 cells in 100 μl of PBS) were subcutaneously injected into the right flank of 6-7 weeks old male SCID mice. After the size of tumour reached an approximate volume of 50 mm^3, 13 (FIG. 5A) or 11 (FIG. 5B) days post tumour cell injection, SEQ ID NO:1 was administered by bolus infusion into the tail vein every other day at 10 mg/kg 15 times (FIG. 5A) or 14 times (FIG. 5B), respectively. Control animals received saline alone for the same period. Antitumour effect of SEQ ID NO:1 was further compared to that of mitoxantrone (novantrone) alone or in combination. Mitoxantrone was administered intravenously once at the beginning of the treatments at a dose of 2 mg/kg (FIG. 5A) or once a week for four weeks at a reduced dose of 0.8 mg/kg (FIG. 5B). All treatments were stopped at day 42 (FIG. 5A) or 38 (FIG. 5B), respectively. A day after the last treatment, tumours were excised from the animals and their weights were measured.
Test [3] deals with PC-3 human prostatic cancer cells. Description: PC-3 prostatic tumour xenograft in SCID mice, combination with mitoxantrone (1.4).
Experimental: as §1
Test [4] deals with HT-29 human colon cancer cells. Description: HT-29 colon tumour xenograft in nude mice, combination with CPT-11 (1.2). The following applies: HT-29 (colon), CD-1; SEQ ID NO:1 10 mg/kg i.v. every other day; CPT-11 20 mg/kg i.p. days 7-12. The text has this:
All treatments were stopped at day 22. […] All treatments were stopped at day 32. […] All treatments were stopped at day 36.

Test [5] deals with LS513 multi-drug resistant colon carcinoma cells. The test can be described thus: LS513 multi-drug resistant colon carcinoma xenograft in SCID mice, combination with CPT-11 (2.8). The following applies: LS513 (colon) multi-drug resistant (CPT-11 sensitive), SCID; SEQ ID NO:1 10 mg/kg i.v. every other day; CPT-11 20 mg/kg/day i.p. 5 days. On the procedure:
BxPC-3 is a gemcitabine resistant call line. […] Gemcitabine was administered intravenously every three days at a dose of 100 mg/kg. Antitumour activities were estimated by the inhibition of tumour volume, which was measured with caliper. Each point represents mean tumour volume calculated from 10 animals per experimental group. […] Hela S3 is a hydroxyurea resistant cell line. […] Hydroxyurea was administered intraperitoneally every day at a dose of 250 mg/kg for 10 days. Cisplatin was administered intravenously once a week for three weeks at a dose of 4 mg/kg. Antitumour activities were estimated by the inhibition of tumour volume, which was measured with caliper. Each point represents mean tumour volume calculated from 10 animals per experimental group. […] Cisplatin was administered intravenously once a week for three weeks at a dose of 4 mg/kg. Taxol was administered intravenously once a week for three weeks at a dose of 10 mg/kg. Antitumour activities were estimated by the inhibition of tumour volume, which was measured with caliper. Each point represents mean tumour volume calculated from 10 animals per experimental group. […] Taxol was administered i.p. once a week at a dose of 10 mg/kg. Antitumour activities were estimated by the inhibition of tumour volume (FIG. 12A), which was measured with calipers. Each point represents mean tumour volume calculated from 10 animals per experimental group. […] Antitumour activities were estimated by the inhibition of tumour volume, which was measured with caliper. Each point represents mean tumour volume calculated from 9-10 animals per experimental group. […] Antitumour activities were estimated by the inhibition of tumour volume, which was measured with caliper. Each point represents mean tumour volume calculated from 10 animals per experimental group. […] Anti-tumour activity was estimated by the inhibition of tumour volume, which was measured with caliper. Each point represents mean tumour volume calculated from 10 animals per experimental group. […] Antitumour activities were estimated by the inhibition of tumour volume, which was measured with caliper. […]

In test [6] the test system is BxPC-3 human pancreatic carcinoma cells. The test can be described thus: BxPC-3 gemcitabine resistant pancreatic carcinoma xenograft in CD-1 nude mice. The following applies: Gemcitabine 100 mg/kg i.v. every three days. The protocol: BxPC-3 is a gemcitabine resistant call line. […] Gemcitabine was administered intravenously every three days at a dose of 100 mg/kg. Antitumour activities were estimated by the inhibition of tumour volume, which was measured with caliper. Each point represents mean tumour volume calculated from 10 animals per experimental group. […] Hela S3 is a hydroxyurea resistant cell line. […] Hydroxyurea was administered intraperitoneally every day at a dose of 250 mg/kg for 10 days. Cisplatin was administered intravenously once a week for three weeks at a dose of 4 mg/kg. Antitumour activities were estimated by the inhibition of tumour volume, which was measured with caliper. Each point represents mean tumour volume calculated from 10 animals per experimental group. […] Cisplatin was administered intravenously once a week for three weeks at a dose of 4 mg/kg. Taxol was administered intravenously once a week for three weeks at a dose of 10 mg/kg. Antitumour activities were estimated by the inhibition of tumour volume, which was measured with caliper. Each point represents mean tumour volume calculated from 10 animals per experimental group. […] Taxol was administered i.p. once a week at a dose of 10 mg/kg. Antitumour activities were estimated by the inhibition of tumour volume (FIG. 12A), which was measured with calipers. Each point represents mean tumour volume calculated from 10 animals per experimental group. Animals were sacrificed and tumour weights taken at the end of the study (FIG. 12C). […] Cisplatin was administered intravenously once a week for four weeks at a dose of 4 mg/kg. Taxol was administered intravenously once a week for four weeks at a dose of 20 mg/kg. Antitumour activities were estimated by the inhibition of tumour volume, which was measured with caliper. Each point represents mean tumour volume calculated from 9-10 animals per experimental group. […] Cisplatin was administered intravenously once a week for four weeks at a dose of 4 mg/kg. Antitumour activities were estimated by the inhibition of tumour volume, which was measured with caliper. Each point represents mean tumour volume calculated from 10 animals per experimental group. At the end of the study the animals were sacrificed and tumours weighed. […] Taxol was administered i.p. once a week at a dose of 10 mg/kg. Anti-tumour activity was estimated by the inhibition of tumour volume, which was measured with caliper. Each point represents mean tumour volume calculated from 10 animals per experimental group. […] Antitumour activities were estimated by the inhibition of tumour volume, which was measured with caliper. Each point represents mean tumour volume calculated from 10 animals per experimental group. Tumour weights were measured after animals were sacrificed at the end of the treatment. […]

In test [7] the test system is A498 human kidney cancer cells. Description: A498 kidney tumour xenograft in SCID mice, controls and chemotherapeutics (Example 7). As to conditions: oligonucleotides 10 mg/kg/2 days i.v., 5-FU 13 mg/kg/day×5, vinblastine 1 mg/kg/week, gemcitabine 100 mg/kg/week. The text has this: CD-1 athymic female nude mice, BALB/c nu/nu nude mice, SCID, and SCID beige mice were purchased from Charles River Laboratories (Montreal, Canada) and experiments were typically initiated when the mice were 6-7 weeks old. […] Each experimental group typically contained 10 mice. After the size of tumour reached a mean tumour volume of 50-100 mm^3, treatment was initiated. […] Anti-tumour activity was estimated by the measurement of tumour volume with a calliper at two-three day intervals. Tumour volume was calculated by a formula L×W×H/2, where L indicates length, W indicates width and H indicates height. Within 24 hours after the last treatment, the animals were sacrificed and tumour and body weights were measured. Results of statistical analyses of the data are presented as P values in the figure legends.
Three additional treatment groups received: 5-FU (13 mg/kg/day×5), vinblastine (1 mg/kg/week) and gemcitabine (100 mg/kg/week). […] Caliper measurements at 1-week intervals were used to calculate tumour volumes. Each point in FIG. 28C represents mean tumour volume calculated from 10 animals per experimental group (with the exception of SEQ ID NO: 1 which was 8 animals). […] After 54 days the mice were sacrificed and the A498 tumours weighed. Each bar represents the mean tumour weight and standard error calculated for each treatment group.

As for `CN(C)/N=N/c1[nH]cnc1C(N)=O` [DTIC, dacarbazine, reference compound], the “Tumour weight as % of saline control” value in test [1] was 68%.

As for `O=C1c2c(O)ccc(O)c2C(=O)c2c(NCCNCCO)ccc(NCCNCCO)c21` [Novantrone, mitoxantrone], the “Tumour weight as % of saline control” value came to 40% in test [2] (first of two printed values (two independent experiments)); 60% in test [2] (second of two printed values (two independent experiments)); 57% in test [3] (PC-3 (prostatic), SCID, SEQ ID NO:1 10 mg/kg i.v. every other day, mitoxantrone (novantrone) i.v., table does not say which of two experiments). Moreover, the “Antitumour effect (tumour weight, FIG. 5B)” value in test [2] (DU145, SCID mice, SEQ ID NO:1 10 mg/kg i.v. every other day 14 times, mitoxantrone 0.8 mg/kg i.v. once a week for four weeks) was “significant delay of tumour growth”. Besides, the “Antitumour effect (tumour weight, FIG. 4B)” value in test [3] (PC-3, SCID mice, SEQ ID NO:1 10 mg/kg i.v. every other day 17 times, mitoxantrone 0.8 mg/kg i.v. once a week for four weeks) is given as “significant delay of tumour growth”.

Take `CCc1c2c(nc3ccc(OC(=O)N4CCC(N5CCCCC5)CC4)cc13)-c1cc3c(c(=O)n1C2)COC(=O)[C@]3(O)CC` [CPT-11, irinotecan, reference compound]: the “Tumour weight as % of saline control” value was determined as 36% in test [4] and 47% in test [5].

For `Nc1ccn([C@@H]2O[C@H](CO)[C@@H](O)C2(F)F)c(=O)n1` [Gemcitabine, reference compound], the “Tumour weight as % of saline control” value in test [6] (BxPC-3 (pancreatic), Gemcitabine resistant, CD-1, SEQ ID NO:1 10 mg/kg i.v. every other day 17 times) is reported as 83%. The “Antitumour effect (tumour volume, FIG. 9)” value in test [6] (BxPC-3 gemcitabine resistant, CD-1 nude mice, SEQ ID NO:1 10 mg/kg i.v. every other day) is on record as “ineffective against Gemcitabine-resistant tumour”. Moreover, the “Effect on tumour growth (volume and weight)” value in test [7] is recorded as “ineffective in stabilization of the tumours; also recorded: at best, a delay in the rate of tumour growth”.
